Data taken from patent US10294202B2, “Pyrrolidinones as herbicides” (FMC Corporation, priority 2013, dated 2019).

What was measured:
[1] = system: blackgrass; assay: Test C pre-/postemergence herbicide test; type: in vivo, Alopecurus myosuroides
Procedure, shortened: (§1)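 Pre-emergence: seeds sown in loam/sand blend and treated with compound in surfactant-containing solvent. Post-emergence: plants at 2–18 cm (1- to 4-leaf stage) in peat-based medium sprayed with the same formulation. Visual rating versus controls after 13–15 days in greenhouse, scale 0 (no effect) to 100 (complete control).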

[2] = system: galium; assay: Test C pre-/postemergence herbicide test; type: in vivo, Galium aparine; details: Preemergence; for Plant response rating (scale of 0 to 100), Galium: 250 g ai/ha
Procedure, shortened: as §1

[3] = system: foxtail, giant; assay: Test C pre-/postemergence herbicide test; type: in vivo, Setaria faberii
Procedure, shortened: as §1

[4] = system: barnyardgrass; assay: Test C pre-/postemergence herbicide test; type: in vivo, Echinochloa crus-galli
Procedure, shortened: as §1

[5] = system: velvetleaf; assay: Test C pre-/postemergence herbicide test; type: in vivo, Abutilon theophrasti
Procedure, shortened: as §1

[6] = system: rice; assay: Test C flooded paddy test; type: in vivo, Oryza sativa; details: Flood
Procedure, shortened: (§2)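 Visual injury scored against controls after 13 to 15 days in the greenhouse, using 0 (no effect) to 100 (complete control). Test compounds went straight into paddy water held 3 cm above the soil surface on 2-leaf-stage plants, with that flood depth maintained for the whole test.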

[7] = system: sedge, umbrella; assay: Test C flooded paddy test; type: in vivo, Cyperus difformis; details: Flood
Procedure, shortened: as §2

[8] = system: blackgrass; assay: Test A postemergence herbicide test; type: in vivo, Alopecurus myosuroides
Procedure, shortened: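 Visual injury rating, 0 (no effect) to 100 (complete control), versus untreated controls ~10 days after treatment. Postemergence spray applied at one- to two-leaf stage, plants 2–10 cm tall, potted in loam soil/sand. Greenhouse-held.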

[9] = Preemergence, 31 g ai/ha, scale 0 to 100, 0 is no effect and 100 is complete control
[10] = Preemergence, 62 g ai/ha, scale 0 to 100
[11] = Preemergence, 125 g ai/ha, scale 0 to 100 (0 no effect, 100 complete control)
[12] = 125 g ai/ha, scale 0 to 100 (0 no effect, 100 complete control)
[13] = 500 g ai/ha, 0 to 100 scale (0 no effect, 100 complete control)
[14] = Postemergence, 31 g ai/ha, scale 0 to 100 (0 no effect, 100 complete control)
[15] = Postemergence, 62 g ai/ha, scale 0 (no effect) to 100 (complete control)
[16] = Postemergence, 125 g ai/ha, scale 0 to 100 (0 no effect, 100 complete control)
[17] = Postemergence, 250 g ai/ha, scale 0 to 100 (0 no effect, 100 complete control)
[18] = 31 g ai/ha, scale 0 to 100, 0 is no effect and 100 is complete control
[19] = 62 g ai/ha, scale of 0 to 100 where 0 is no effect and 100 is complete control, 13 to 15 days
[20] = 125 g ai/ha, scale of 0 to 100 where 0 is no effect and 100 is complete control, 13 to 15 days
[21] = 250 g ai/ha, scale of 0 to 100 where 0 is no effect and 100 is complete control, 13 to 15 days
[22] = 31 g ai/ha, scale of 0 to 100 where 0 is no effect and 100 is complete control, 13 to 15 days
[23] = Preemergence, 62 g ai/ha, scale 0 to 100 (0 no effect, 100 complete control)
[24] = Preemergence, 125 g ai/ha, scale 0 to 100

O=C1NCC(c2ccc(F)c(C(F)(F)F)c2)C1C(=O)Nc1cccc(F)c1F (racemic) [Compound 77]
Blackgrass plant response rating [1, 9]: 85 | Plant response rating, Blackgrass [1, 10]: 85 | Plant response rating, Blackgrass [1, 11]: 85 | Plant response rating (scale of 0 to 100), Blackgrass ([1]; Preemergence, 250 g ai/ha): 95 | Plant response rating, Galium ([2]; 62 g ai/ha, scale 0 to 100): 5 | Plant response rating, Galium [2, 12]: 80 | Plant response rating (scale of 0 to 100), Galium [2]: 90 | Foxtail, Giant plant response rating [3, 9]: 90 | Plant response rating, Foxtail, Giant [3, 10]: 90 | Plant response rating, Foxtail, Giant [3, 11]: 95 | Plant response rating (scale of 0 to 100), Foxtail, Giant ([3]; Preemergence, 250 g ai/ha): 100 | Barnyardgrass plant response rating [4, 9]: 90 | Plant response rating, Barnyardgrass [4, 10]: 95 | Plant response rating, Barnyardgrass [4, 11]: 95 | Plant response rating (scale of 0 to 100; 0 is no effect, 100 is complete control), Barnyardgrass ([4]; Preemergence, 250 g ai/ha): 95 | Velvetleaf plant response rating [5, 9]: 0 | Plant response rating, Velvetleaf [5, 10]: 25 | Plant response rating, Velvetleaf [5, 11]: 30 | Plant response rating (scale of 0 to 100), Velvetleaf ([5]; Preemergence, 250 g ai/ha): 40 | Plant response rating, Rice ([6]; 250 g ai/ha, scale 0 to 100): 0 | Plant response rating, Rice ([6]; 500 g ai/ha, scale 0 to 100): 0 | Plant response rating, Rice ([6]; 1000 g ai/ha, scale 0 to 100): 20 | Plant response rating, Rice ([6]; 2000 g ai/ha, scale 0 to 100): 60 | Plant response rating, Sedge, Umbrella ([7]; 250 g ai/ha, scale 0 to 100): 0 | Plant response rating, Sedge, Umbrella ([7]; 500 g ai/ha, scale 0 to 100): 0 | Plant response rating, Sedge, Umbrella ([7]; 1000 g ai/ha, scale 0 to 100): 20 | Plant response rating, Sedge, Umbrella ([7]; 2000 g ai/ha, scale 0 to 100): 40

O=C1NCC(c2ccc(F)cc2)C1C(=O)Nc1ccc(F)c(F)c1F (racemic) [Compound 120]
Plant response rating, Blackgrass ([8]; 125 g ai/ha, 0 to 100 scale, 0 no effect, 100 complete control): 40 | Plant response rating, Blackgrass [8, 13]: 50 | Plant response rating, Blackgrass [1, 14]: 0 | Plant response rating, Blackgrass [1, 15]: 0 | Plant response rating, Blackgrass [1, 16]: 0 | Plant response rating, Blackgrass [1, 17]: 0 | Blackgrass plant response rating [1, 9]: 35 | Plant response rating, Blackgrass [1, 10]: 50 | Plant response rating, Blackgrass [1, 11]: 50 | Plant response rating (scale of 0 to 100), Blackgrass ([1]; Preemergence, 250 g ai/ha): 70 | Galium plant response rating [2, 18]: 5 | Plant response rating, Galium ([2]; 62 g ai/ha, scale 0 to 100): 95 | Plant response rating, Galium [2, 12]: 50 | Plant response rating (scale of 0 to 100), Galium [2]: 90 | Plant response rating, Foxtail, Giant [3, 14]: 25 | Plant response rating, Foxtail, Giant [3, 15]: 65 | Plant response rating, Foxtail, Giant [3, 16]: 75 | Plant response rating, Foxtail, Giant [3, 17]: 85 | Foxtail, Giant plant response rating [3, 9]: 90 | Plant response rating, Foxtail, Giant [3, 10]: 95 | Plant response rating, Foxtail, Giant [3, 11]: 98 | Plant response rating (scale of 0 to 100), Foxtail, Giant ([3]; Preemergence, 250 g ai/ha): 98 | Plant response rating, Barnyardgrass [4, 14]: 0 | Plant response rating, Barnyardgrass [4, 15]: 30 | Plant response rating, Barnyardgrass [4, 16]: 40 | Plant response rating, Barnyardgrass [4, 17]: 65 | Barnyardgrass plant response rating [4, 9]: 85 | Plant response rating, Barnyardgrass [4, 10]: 90 | Plant response rating, Barnyardgrass [4, 11]: 95 | Plant response rating (scale of 0 to 100; 0 is no effect, 100 is complete control), Barnyardgrass ([4]; Preemergence, 250 g ai/ha): 98 | Plant response rating, Velvetleaf [5, 14]: 25 | Plant response rating, Velvetleaf [5, 15]: 0 | Plant response rating, Velvetleaf [5, 16]: 5 | Plant response rating, Velvetleaf [5, 17]: 25 | Velvetleaf plant response rating [5, 9]: 0 | Plant response rating, Velvetleaf [5, 10]: 20 | Plant response rating, Velvetleaf [5, 11]: 35 | Plant response rating (scale of 0 to 100), Velvetleaf ([5]; Preemergence, 250 g ai/ha): 40 | Plant response rating, Rice [6, 19]: 0 | Plant response rating, Rice [6, 20]: 0 | Plant response rating, Rice ([6]; 250 g ai/ha, scale 0 to 100): 0 | Plant response rating, Rice ([6]; 500 g ai/ha, scale 0 to 100): 0 | Plant response rating, Sedge, Umbrella [7, 19]: 0 | Plant response rating, Sedge, Umbrella [7, 20]: 0 | Plant response rating, Sedge, Umbrella ([7]; 250 g ai/ha, scale 0 to 100): 0 | Plant response rating, Sedge, Umbrella ([7]; 500 g ai/ha, scale 0 to 100): 0

O=C1NCC(c2cccc(C(F)F)c2)C1C(=O)Nc1ccccc1F (racemic) [Compound 210]
Plant response rating, Blackgrass ([8]; 125 g ai/ha, 0 to 100 scale, 0 is no effect, 100 is complete control): 30 | Blackgrass plant response rating (0 to 100 scale, 0 is no effect, 100 is complete control) ([8]; 500 g ai/ha): 60 | Plant response rating, Rice [6, 20]: 0 | Plant response rating, Rice [6, 21]: 0 | Plant response rating, Rice ([6]; 500 g ai/ha, scale 0 to 100): 0 | Plant response rating, Rice ([6]; 1000 g ai/ha, scale 0 to 100): 0 | Plant response rating, Sedge, Umbrella [7, 20]: 0 | Plant response rating, Sedge, Umbrella [7, 21]: 0 | Plant response rating, Sedge, Umbrella ([7]; 500 g ai/ha, scale 0 to 100): 0 | Plant response rating, Sedge, Umbrella ([7]; 1000 g ai/ha, scale 0 to 100): 0

O=C1NCC(Br)(c2ccccc2)C1C(=O)Nc1ccccc1F (centres unmarked) [Compound 92, 4-bromo-N-(2-fluorophenyl)-2-oxo-4-phenyl-3-pyrrolidinecarboxamide]
Plant response rating, Rice [6, 22]: 10 | Plant response rating, Rice [6, 19]: 10 | Plant response rating, Rice [6, 20]: 20 | Plant response rating, Rice ([6]; 250 g ai/ha, scale 0 to 100): 20 | Plant response rating, Sedge, Umbrella [7, 22]: 0 | Plant response rating, Sedge, Umbrella [7, 19]: 0 | Plant response rating, Sedge, Umbrella [7, 20]: 0 | Plant response rating, Sedge, Umbrella ([7]; 250 g ai/ha, scale 0 to 100): 0

O=C1NCC(c2ccccc2)C1(Br)C(=O)Nc1ccccc1F (centres unmarked) [Compound 93, 3-bromo-N-(2-fluorophenyl)-2-oxo-4-phenyl-3-pyrrolidinecarboxamide]
Plant response rating, Rice [6, 22]: 10 | Plant response rating, Rice [6, 19]: 20 | Plant response rating, Rice [6, 20]: 20 | Plant response rating, Rice ([6]; 250 g ai/ha, scale 0 to 100): 30 | Plant response rating, Sedge, Umbrella [7, 22]: 0 | Plant response rating, Sedge, Umbrella [7, 19]: 0 | Plant response rating, Sedge, Umbrella [7, 20]: 0 | Plant response rating, Sedge, Umbrella ([7]; 250 g ai/ha, scale 0 to 100): 100

O=C1NCC(c2cccc(C(F)(F)F)c2)C1C(=O)Nc1ccc(F)c(F)c1F (centres unmarked) [Compound 345]
Plant response rating, Blackgrass ([8]; 125 g ai/ha, visual rating on 0 to 100 scale (0 no effect, 100 complete control), approx. 10 days): 50 | Plant response rating, Blackgrass [8, 13]: 60 | Blackgrass plant response rating [1, 9]: 50 | Blackgrass plant response rating [1, 23]: 50 | Plant response rating, Blackgrass [1, 24]: 90 | Plant response rating (scale of 0 to 100), Blackgrass ([1]; Preemergence, 250 g ai/ha): 90 | Galium plant response rating [2, 18]: 20 | Galium plant response rating ([2]; 62 g ai/ha, scale 0 to 100 (0 no effect, 100 complete control)): 90 | Plant response rating, Galium ([2]; 125 g ai/ha, scale 0 to 100): 90 | Plant response rating (scale of 0 to 100), Galium [2]: 85 | Foxtail, Giant plant response rating [3, 9]: 85 | Foxtail, Giant plant response rating [3, 23]: 90 | Plant response rating, Foxtail, Giant [3, 24]: 95 | Plant response rating (scale of 0 to 100), Foxtail, Giant ([3]; Preemergence, 250 g ai/ha): 98 | Barnyardgrass plant response rating [4, 9]: 80 | Barnyardgrass plant response rating [4, 23]: 95 | Plant response rating, Barnyardgrass [4, 11]: 95 | Plant response rating (scale of 0 to 100; 0 is no effect, 100 is complete control), Barnyardgrass ([4]; Preemergence, 250 g ai/ha): 95 | Velvetleaf plant response rating [5, 23]: 0 | Plant response rating, Velvetleaf [5, 24]: 25
